Assays:
[1] = tested on: morningglory; assay: Test A preemergence; format: in vivo, Ipomoea spp.
Outline: (§1)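 Ratings express plant response from 0 (no effect) to 100 (complete control), judged visually against untreated controls after approximately 10 days in the greenhouse. Preemergence applications were made as directed soil sprays onto seeded loam–sand mix, and postemergence applications onto 2–10 cm plants at one- to two-leaf stage.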

[2] = tested on: barnyardgrass; assay: Test A preemergence; format: in vivo, Echinochloa crus-galli
Outline: as §1

[3] = tested on: sedge, umbrella; assay: Test B flood; format: in vivo, Cyperus difformis; details: 250 g ai/ha, visual rating on 0 to 100 scale (0 no effect, 100 complete control), 13 to 15 days
Outline: (§2)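 Paddy-water application: seedlings at 2-leaf stage, flood depth 3 cm maintained for the test duration. Evaluation after 13–15 days in the greenhouse by eye relative to controls; 0–100 scale.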

[4] = tested on: corn; assay: Test A postemergence; format: in vivo, Zea mays
Outline: as §1

[5] = tested on: pigweed; assay: Test A postemergence; format: in vivo, Amaranthus retroflexus
Outline: as §1

[6] = tested on: barnyardgrass; assay: Test A postemergence; format: in vivo, Echinochloa crus-galli; details: Postemergence
Outline: as §1

[7] = tested on: wheat; assay: Test A preemergence; format: in vivo, Triticum aestivum; details: preemergence
Outline: as §1

[8] = tested on: crabgrass, large; assay: Test A postemergence; format: in vivo, Digitaria sanguinalis
Outline: as §1

[9] = tested on: pigweed; assay: Test A preemergence; format: in vivo, Amaranthus retroflexus
Outline: as §1

[10] = tested on: velvetleaf; assay: Test A postemergence; format: in vivo, Abutilon theophrasti
Outline: as §1

[11] = tested on: foxtail, giant; assay: Test A preemergence; format: in vivo, Setaria faberii
Outline: as §1

[12] = tested on: morningglory; assay: Test A postemergence; format: in vivo, Ipomoea spp.
Outline: as §1

[13] = tested on: rice; assay: Test B flood; format: in vivo, Oryza sativa; details: 250 g ai/ha, visual rating on 0 to 100 scale (0 no effect, 100 complete control), 13 to 15 days
Outline: as §2

[14] = tested on: ducksalad; assay: Test B flood; format: in vivo, Heteranthera limosa; details: 250 g ai/ha, visual rating on 0 to 100 scale (0 no effect, 100 complete control), 13 to 15 days
Protocol: Seeds selected from rice (Oryza sativa), sedge, umbrella (small-flower umbrella sedge Cyperus difformis), ducksalad (Heteranthera limosa), and barnyardgrass (Echinochloa crus-galli) were grown to the 2-leaf stage for testing. At time of treatment, test pots were flooded to 3 cm above the soil surface, treated by application of test compounds directly to the paddy water, and then maintained at that water depth for the duration of the test.
Treated plants and controls were maintained in a greenhouse for 13 to 15 days, after which time all species were compared to controls and visually evaluated. Plant response ratings, summarized in Table B, are based on a scale of 0 to 100 where 0 is no effect and 100 is complete control. A dash (-) response means no test result.

[15] = tested on: crabgrass, large; assay: Test A preemergence; format: in vivo, Digitaria sanguinalis
Outline: as §1

[16] = tested on: corn; assay: Test A preemergence; format: in vivo, Zea mays
Outline: as §1

[17] = tested on: barnyardgrass; assay: Test B flood; format: in vivo, Echinochloa crus-galli; details: 250 g ai/ha, visual rating on 0 to 100 scale (0 no effect, 100 complete control), 13 to 15 days
Outline: as §2

[18] = tested on: wheat; assay: Test A postemergence; format: in vivo, Triticum aestivum
Outline: as §1

[19] = tested on: velvetleaf; assay: Test A preemergence; format: in vivo, Abutilon theophrasti
Outline: as §1

[20] = tested on: foxtail, giant; assay: Test A postemergence; format: in vivo, Setaria faberii
Outline: as §1

[21] = Preemergence, 500 g ai/ha, 0 to 100 scale, 0 no effect, 100 complete control
[22] = preemergence, 125 g ai/ha, visual injury, 0 to 100 scale, approx. 10 days
[23] = Postemergence, 500 g ai/ha, visual rating after approx. 10 days, 0 to 100 scale (0 no effect, 100 complete control)
[24] = postemergence, 125 g ai/ha, about 10 days, visual rating on 0 to 100 scale (0 no effect, 100 complete control)
[25] = 125 g ai/ha, 0 to 100 scale, 0 no effect, 100 complete control
[26] = 500 g ai/ha, visual rating after approx. 10 days, 0 to 100 scale (0 no effect, 100 complete control)
[27] = 125 g ai/ha, visual injury, 0 to 100 scale, approx. 10 days
[28] = 500 g ai/ha, visual injury after approx. 10 days, 0 to 100 scale (0 no effect, 100 complete control)
[29] = preemergence, 500 g ai/ha, visual injury after approx. 10 days, 0 to 100 scale (0 no effect, 100 complete control)

| SMILES | Morningglory plant response rating [1, 22] | Barnyardgrass plant response rating [2, 22] | Plant response rating, Sedge, Umbrella [3] | Corn plant response rating [4, 23] | Corn plant response rating [4, 24] | Pigweed plant response rating [5, 23] | Pigweed plant response rating [5, 24] | Barnyardgrass plant response rating [6, 25] | Barnyardgrass plant response rating [6, 26] | Wheat plant response rating [7, 27] | Wheat plant response rating [7, 28] | Crabgrass, Large plant response rating [8, 23] | Crabgrass, Large plant response rating [8, 24] | Pigweed plant response rating [9, 22] | Velvetleaf plant response rating [10, 23] | Velvetleaf plant response rating [10, 24] | Foxtail, Giant plant response rating [11, 22] | Morningglory plant response rating [12, 23] | Morningglory plant response rating [12, 24] | Plant response rating, Rice [13] | other results |
| --- | --- | --- | --- | --- | --- | --- | --- | --- | --- | --- | --- | --- | --- | --- | --- | --- | --- | --- | --- | --- | --- |
| CCc1cc(C(=O)NC2CC2)nn1Oc1ccnc(C(F)(F)F)c1 [Compound 83, N-cyclopropyl-5-ethyl-1-[[(2-trifluoromethyl)-4-pyridinyl]oxy]-1H-pyrazole-3-carboxamide] | 10 | 10 | 70 | 70 | 10 | 20 | 10 | 10 | 40 | 0 | 60 | 60 | 30 | 90 | 30 | 30 | 70 | 70 | 20 | 10 | Morningglory plant response rating [1, 21]: 50; Barnyardgrass plant response rating [2, 21]: 90; Pigweed plant response rating [9, 21]: 100; Foxtail, Giant plant response rating [11, 21]: 100; Plant response rating, Ducksalad [14]: 60; Crabgrass, Large plant response rating [15, 21]: 100; Crabgrass, Large plant response rating [15, 22]: 100; Corn plant response rating [16, 21]: 60; Corn plant response rating [16, 22]: 10; Plant response rating, Barnyardgrass [17]: 0; Wheat plant response rating [18, 23]: 40; Wheat plant response rating [18, 24]: 0; Velvetleaf plant response rating [19, 21]: 10; Velvetleaf plant response rating [19, 22]: 0; Foxtail, Giant plant response rating [20, 23]: 60; Foxtail, Giant plant response rating [20, 24]: 20 |
| CCc1cc(C(=O)NCC(F)(F)F)nn1Oc1ccnc(C(F)(F)F)c1 [Compound 84] | 0 | 10 | 60 | 40 | 10 | 20 | 10 | 10 | 30 | 0 | 50 | 50 | 20 | 50 | 30 | 20 | 40 | 70 | 20 | 0 | Morningglory plant response rating [1, 21]: 30; Barnyardgrass plant response rating [2, 21]: 70; Pigweed plant response rating [9, 21]: 100; Foxtail, Giant plant response rating [11, 21]: 80; Plant response rating, Ducksalad [14]: 20; Crabgrass, Large plant response rating [15, 21]: 100; Crabgrass, Large plant response rating [15, 22]: 90; Corn plant response rating [16, 21]: 40; Corn plant response rating [16, 22]: 10; Plant response rating, Barnyardgrass [17]: 0; Wheat plant response rating [18, 23]: 40; Wheat plant response rating [18, 24]: 0; Velvetleaf plant response rating [19, 21]: 50; Velvetleaf plant response rating [19, 22]: 0; Foxtail, Giant plant response rating [20, 23]: 50; Foxtail, Giant plant response rating [20, 24]: 10 |
| CCCCNC(=O)c1cc(CC)n(Oc2ccnc(C(F)(F)F)c2)n1 [Compound 86] | 0 | 0 | 40 | 30 | 10 | 0 | 0 | 0 | 20 | 0 | 0 | 50 | 10 | 0 | 40 | 30 | 0 | 60 | 10 | 0 | Morningglory plant response rating [1, 29]: 20; Barnyardgrass plant response rating [2, 29]: 50; Pigweed plant response rating [9, 29]: 0; Foxtail, Giant plant response rating [11, 29]: 80; Plant response rating, Ducksalad [14]: 0; Crabgrass, Large plant response rating [15, 22]: 50; Crabgrass, Large plant response rating [15, 29]: 80; Corn plant response rating [16, 22]: 0; Corn plant response rating [16, 29]: 20; Plant response rating, Barnyardgrass [17]: 0; Wheat plant response rating [18, 23]: 10; Wheat plant response rating [18, 24]: 0; Velvetleaf plant response rating [19, 22]: 0; Velvetleaf plant response rating [19, 29]: 0; Foxtail, Giant plant response rating [20, 23]: 40; Foxtail, Giant plant response rating [20, 24]: 10 |
